This note sets out measurements from PubChem BioAssay AID1259407 (Chemical Carcinogenesis Research Information System (CCRIS), 2018).

SMILES strings stand for the structures. Calls of active or inactive are those of the source. No rule for the calls is given here.

The series has as its system CCRIS mutagenicity, Ames/micronucleus/aberration tests. The series is described as follows: CCRIS mutagenicity studies.
Where [1] appears, read: Test System: AMES SALMONELLA TYPHIMURIUM, Strain/Indicator: TA98, Metabolic Activation: NONE, Method: PREINCUBATION
Setting [2] is: Test System: AMES SALMONELLA TYPHIMURIUM, Strain/Indicator: TA98, Metabolic Activation: RAT LIVER S-9, PHENOBARBITAL AND BETA-NAPHTHOFLAVONE, Method: PREINCUBATION
Where [3] appears, read: Test System: AMES SALMONELLA TYPHIMURIUM, Strain/Indicator: TA100, Metabolic Activation: NONE, Method: PREINCUBATION
[4] abbreviates: Test System: AMES SALMONELLA TYPHIMURIUM, Strain/Indicator: TA100, Metabolic Activation: RAT LIVER S-9, PHENOBARBITAL AND BETA-NAPHTHOFLAVONE, Method: PREINCUBATION
[5] abbreviates: Test System: AMES SALMONELLA TYPHIMURIUM, Strain/Indicator: TA1535, Metabolic Activation: NONE, Method: PREINCUBATION
The mark [6] stands for this setting: Test System: AMES SALMONELLA TYPHIMURIUM, Strain/Indicator: TA1535, Metabolic Activation: RAT LIVER S-9, PHENOBARBITAL AND BETA-NAPHTHOFLAVONE, Method: PREINCUBATION
Setting [7] is: Test System: AMES SALMONELLA TYPHIMURIUM, Strain/Indicator: TA1537, Metabolic Activation: NONE, Method: PREINCUBATION
The mark [8] stands for this setting: Test System: AMES SALMONELLA TYPHIMURIUM, Strain/Indicator: TA1537, Metabolic Activation: RAT LIVER S-9, PHENOBARBITAL AND BETA-NAPHTHOFLAVONE, Method: PREINCUBATION
Where [9] appears, read: Test System: AMES SALMONELLA TYPHIMURIUM, Strain/Indicator: TA98, Metabolic Activation: NONE, Method: STANDARD PLATE.
Where [10] appears, read: Test System: AMES SALMONELLA TYPHIMURIUM, Strain/Indicator: TA100, Metabolic Activation: NONE, Method: STANDARD PLATE.
The mark [11] stands for this setting: Test System: AMES SALMONELLA TYPHIMURIUM, Strain/Indicator: TA1535, Metabolic Activation: NONE, Method: STANDARD PLATE.

Regarding `C1CCCNCC1`, the mutagenic call is, setting by setting: under setting [1], “inactive; negative”; under setting [2], “inactive; negative”; under setting [3], “inactive; negative”; under setting [4], “inactive; negative”; under setting [5], “inactive; negative”; under setting [6], “inactive; negative”. Besides, the mutagenic call was “inactive; negative” under setting [7]; “inactive; negative” under setting [8]; “inactive; negative” (Test System: E.COLI, Strain/Indicator: WP2UVRA, Metabolic Activation: NONE, Method: PREINCUBATION); “inactive; negative” (Test System: E.COLI, Strain/Indicator: WP2UVRA, Metabolic Activation: RAT LIVER S-9, PHENOBARBITAL AND BETA-NAPHTHOFLAVONE, Method: PREINCUBATION).

In the case of `CCN(CCCl)CCCNc1c2ccc(Cl)cc2nc2ccc(OC)nc12`, the mutagenic call was “active; positive” under setting [9]; “active; positive” under setting [10]; “inactive; negative” under setting [11]; “active; positive” (Test System: AMES SALMONELLA TYPHIMURIUM, Strain/Indicator: TA1536, Metabolic Activation: NONE, Method: STANDARD PLATE); “active; positive” (Test System: AMES SALMONELLA TYPHIMURIUM, Strain/Indicator: TA1537, Metabolic Activation: NONE, Method: STANDARD PLATE); “active; positive” (Test System: AMES SALMONELLA TYPHIMURIUM, Strain/Indicator: TA1538, Metabolic Activation: NONE, Method: STANDARD PLATE).

In the case of `Cc1ccc2nc(N)[nH]c2c1`, the mutagenic call was “active; positive” (Test System: AMES SALMONELLA TYPHIMURIUM, Strain/Indicator: TA98, Metabolic Activation: RAT, LIVER, S-9, AROCLOR 1254, Method: PREINCUBATION) and “inactive; negative” (Test System: AMES SALMONELLA TYPHIMURIUM, Strain/Indicator: TA100, Metabolic Activation: RAT, LIVER, S-9, AROCLOR 1254, Method: PREINCUBATION).

With `O=C(NCCCl)Sc1ncnc2nc[nH]c12`, the mutagenic call is, setting by setting: (Test System: AMES SALMONELLA TYPHIMURIUM, Strain/Indicator: TA97, Metabolic Activation: NONE, Method: STANDARD PLATE) “inactive; negative”; (Test System: AMES SALMONELLA TYPHIMURIUM, Strain/Indicator: TA97, Metabolic Activation: RAT, LIVER, S-9, PHENOBARBITAL AND ALPHA-NAPHTHOFLAVONE, Method: STANDARD PLATE) “inactive; negative”; under setting [9], “inactive; negative”; (Test System: AMES SALMONELLA TYPHIMURIUM, Strain/Indicator: TA98, Metabolic Activation: RAT, LIVER, S-9, PHENOBARBITAL AND ALPHA-NAPHTHOFLAVONE, Method: STANDARD PLATE) “inactive; negative”; under setting [10], “inactive; negative”; (Test System: AMES SALMONELLA TYPHIMURIUM, Strain/Indicator: TA100, Metabolic Activation: RAT, LIVER, S-9, PHENOBARBITAL AND ALPHA-NAPHTHOFLAVONE, Method: STANDARD PLATE) “inactive; negative”. Further, the mutagenic call is, setting by setting: under setting [11], “active; positive”; (Test System: AMES SALMONELLA TYPHIMURIUM, Strain/Indicator: TA1535, Metabolic Activation: RAT, LIVER, S-9, PHENOBARBITAL AND ALPHA-NAPHTHOFLAVONE, Method: STANDARD PLATE) “active; positive”.

`Cc1c[nH]c(=O)[nH]c1=O`: under “Test System: CHINESE HAMSTER V-79, Strain/Indicator: V-79 (HPRT)/6-THIOGUANINE, Metabolic Activation: NONE, Method: STANDARD PLATE”, the mutagenic call was “inactive; negative”.

Consider `COC1=CC(=O)c2c(ncc3c4c([nH]c23)CCCC4)C1=O`, for which the mutagenic call (Test System: AMES SALMONELLA TYPHIMURIUM, Strain/Indicator: TA97A, Metabolic Activation: NONE, Method: STANDARD PLATE) is “active; positive”; the mutagenic call (Test System: AMES SALMONELLA TYPHIMURIUM, Strain/Indicator: TA97A, Metabolic Activation: RAT LIVER S-9, AROCLOR 1254, Method: STANDARD PLATE) was “active; positive”; the mutagenic call under setting [9] was “active; positive”; the mutagenic call (Test System: AMES SALMONELLA TYPHIMURIUM, Strain/Indicator: TA98, Metabolic Activation: RAT LIVER S-9, AROCLOR 1254, Method: STANDARD PLATE) is “active; positive”; the mutagenic call under setting [10] was “active; positive”; the mutagenic call (Test System: AMES SALMONELLA TYPHIMURIUM, Strain/Indicator: TA100, Metabolic Activation: RAT LIVER S-9, AROCLOR 1254, Method: STANDARD PLATE) was “active; positive”. Further, the mutagenic call is, setting by setting: (Test System: AMES SALMONELLA TYPHIMURIUM, Strain/Indicator: TA102, Metabolic Activation: NONE, Method: STANDARD PLATE) “inactive; negative”; (Test System: AMES SALMONELLA TYPHIMURIUM, Strain/Indicator: TA102, Metabolic Activation: RAT LIVER S-9, AROCLOR 1254, Method: STANDARD PLATE) “inactive; negative”.

On to `CCC(C)c1ccccc1O` (stereo not drawn), for which the mutagenic call runs as follows: (Test System: AMES SALMONELLA TYPHIMURIUM, Strain/Indicator: TA98, Metabolic Activation: HAMSTER, LIVER, S-9, AROCLOR 1254 (10%), Method: PREINCUBATION) “inactive; negative”; under setting [1], “inactive; negative”; under setting [2], “inactive; negative”; (Test System: AMES SALMONELLA TYPHIMURIUM, Strain/Indicator: TA98, Metabolic Activation: RAT, LIVER, S-9, AROCLOR 1254 (10%), Method: PREINCUBATION) “inactive; negative”; (Test System: AMES SALMONELLA TYPHIMURIUM, Strain/Indicator: TA100, Metabolic Activation: HAMSTER, LIVER, S-9, AROCLOR 1254 (10%), Method: PREINCUBATION) “inactive; negative”; under setting [3], “inactive; negative”. The mutagenic call runs as follows: under setting [4], “inactive; negative”; (Test System: AMES SALMONELLA TYPHIMURIUM, Strain/Indicator: TA100, Metabolic Activation: RAT, LIVER, S-9, AROCLOR 1254 (10%), Method: PREINCUBATION) “inactive; negative”; (Test System: AMES SALMONELLA TYPHIMURIUM, Strain/Indicator: TA1535, Metabolic Activation: HAMSTER, LIVER, S-9, AROCLOR 1254 (10%), Method: PREINCUBATION) “inactive; negative”; under setting [5], “inactive; negative”; under setting [6], “inactive; negative”; (Test System: AMES SALMONELLA TYPHIMURIUM, Strain/Indicator: TA1535, Metabolic Activation: RAT, LIVER, S-9, AROCLOR 1254 (10%), Method: PREINCUBATION) “inactive; negative”. Also, the mutagenic call is “inactive; negative” (Test System: AMES SALMONELLA TYPHIMURIUM, Strain/Indicator: TA1537, Metabolic Activation: HAMSTER, LIVER, S-9, AROCLOR 1254 (10%), Method: PREINCUBATION); “inactive; negative” under setting [7]; “inactive; negative” under setting [8]; “inactive; negative” (Test System: AMES SALMONELLA TYPHIMURIUM, Strain/Indicator: TA1537, Metabolic Activation: RAT, LIVER, S-9, AROCLOR 1254 (10%), Method: PREINCUBATION); “inactive; negative” (Test System: E.COLI, Strain/Indicator: WP2UVRA/PKM101, Metabolic Activation: NONE, Method: PREINCUBATION); “inactive; negative” (Test System: E.COLI, Strain/Indicator: WP2UVRA/PKM101, Metabolic Activation: RAT LIVER S-9, PHENOBARBITAL AND BETA-NAPHTHOFLAVONE, Method: PREINCUBATION).
